The values that follow come from US20040023840A1, “Combination of organic compounds” (priority 2003, published 2004).

Test [1] deals with SHR with endothelial dysfunction. The test can be described thus: Survival of SHR with chronic NO synthase blockade (L-NAME), endothelial dysfunction model. The format is in vivo, rat. The settings on record: for survival rate: SHR + L-NAME 12 weeks; for kidney lesions / proteinuria: low doses of valsartan and enalapril. As for the experimental part:
Male 20-24 week-old SHR, purchased from RCC Ldt (Fullingsdorf, Switzerland), are maintained in a temperature- and light-controlled room with free access to rat chow (Nafag 9331, Gossau, Switzerland) and tap water. The experiment is p rformed in accordance with the NIH guidelines and approved by the Canton Veterinary office (Bew 161, Kantonales V t rin{overscore (a)}ramt, Liestal, Switzerland). All rats are treated with the NO synthase inhibitor L-NAME (Sigma Chemicals) administered in drinking water (50 mg/l) for 12 weeks. The average daily dose of L-NAME calculated from the water consumed was 2.5 mg/kg/d (range 2.1-2.7).
(§1) The rats are divided into 5 groups: group 1, control (n=40); Group 2, valsartan (val5, 5 mg/kg/d; n=40); Group 3, enalapril (ena1, 1 mg/kg/d; n=30); Group 4, a combination (ena1val5) of enalapril (1 mg/kg/d) and valsartan (5 mg/kg/d); n=30) and Group 5, valsartan (val50, 50 mg/kg/d; n=30). The drugs are administered in drinking fluid. […] The pressor effect of Ang II at […] obtained in controls normotensive rats is reduced by 49% and 73% after treatment with valsartan 5 and 50 mg/kg/d, respectively (Gervais et al. 1999). The response to Ang I injected in Wistar Kyoto rats pretreated with enalapril 1 mg/kg/d or valsartan 5 mg/kg/d is similar.
Body weight is measured every week. Systolic blood pressure and heart rate are recorded by tail cuff plethysmography 3 and 2 weeks before starting the study and at 2 weeks after drug administration. Urine is collected over a 24 hour period from rats kept in individual (metabolic) cages the week before starting treatment and at weeks 4 and 12 for volume measurement and protein, creatinine, sodium and potassium determination using standard laboratory methods. At the same time points, blood samples are withdrawn from the retro-orbital plexus (maximum 1 ml) for creatinine, Na^+ and K^+ assays.
Ten rats from each group are sacrificed at 4 weeks for collection of kidney and heart for morphological analysis. The remaining rats are sacrificed at 12 weeks. Cardiac and kidney weight is recorded. Terminal blood sampling is performed in 5% EDTA at 4 (morphometry study) and 12 (end of the study) weeks for aldosterone, determination by radioimmunoassay using a DPC coat-a-count aldosterone-RIA kit (Bühlmann, Switzerland).
All data are expressed as mean±SEM. Statistical analysis is performed using a one-way ANOVA, followed by a Duncan's multiple range test and a Newman-Keuls test, 7 for comparison between the different groups. Results with a probability value of less than 0.05 are deemed statistically significant.

For the next test, the system named is response to Ang I. Put plainly: Response to Ang I injected in pretreated Wistar Kyoto rats. The format is in vivo, rat. The settings on record: Wistar Kyoto rats pretreated with enalapril 1 mg/kg/d or valsartan 5 mg/kg/d; the two compared. As to the method:
as §1

The subject of the next test is pressor effect of Ang II. The settings on record: Ang II at 1 mg/kg, normotensive rats, cited from earlier work.
[2] abbreviates: non-blood pressure reducing doses in drinking fluid: valsartan 5 mg/kg/d, enalapril 1 mg/kg/d, or both combined.

Read-outs that look alike come from different tables or passages of the source.

Take `CCOC(=O)[C@H](CCc1ccccc1)N[C@@H](C)C(=O)N1CCC[C@H]1C(=O)O` [enalapril]: the survival rate in test [1] (setting [2]) worked out at 55%. In test [1] (SHR + L-NAME), the kidney lesions result is given as “no reduction” and the proteinuria entry is given as “no decrease”. The “response to Ang I” value in the test with response to Ang I is reported as “similar”.

In the case of `CCCCC(=O)N(Cc1ccc(-c2ccccc2-c2nnn[nH]2)cc1)[C@H](C(=O)O)C(C)C` [valsartan], the survival rate in test [1] (high dose valsartan 50 mg/kg/d in drinking fluid) was determined as 95%; in test [1] (setting [2]) it was 67%. Moreover, in test [1] (SHR + L-NAME), the kidney lesions result is reported as “no reduction”. In addition, the proteinuria entry in test [1] (SHR + L-NAME) is reported as “no decrease”. In addition, the systolic blood pressure entry in test [1] (SHR + L-NAME, valsartan 50 mg/kg, increase in blood pressure significantly attenuated) is reported as “above 250 mmHg”. For the same molecule, in the test on response to Ang I, the “response to Ang I” value is reported as “similar”. Further, the results for the “reduction of pressor effect of Ang II” value in the test with pressor effect of Ang II (valsartan 5 mg/kg/d (Gervais et al. 1999)) and in the test with pressor effect of Ang II (valsartan 50 mg/kg/d (Gervais et al. 1999)) were 49% and 73%, respectively.
